Reference: patent US20090203610A1, “METHODS OF TREATING OBESITY OR DIABETES USING NT-4/5” (RINAT NEUROSCIENCE CORPORATION, priority 2004, published 2009)

Tests used:
db/db mice [1] = experiment: Serum transaminase (AST, ALT) activity in db/db mice (Example 1); settings: NT-4/5 20 mg/kg s.c., Rosiglitazone 3 mg/kg p.o.
Procedure: Test animals: 24 female 10-12 weeks old db/db mice (C57BL/Ks J Rj-db/db, Janvier, France), weighing in the target range of 40-50 g, were used in this study. These mice were housed in a temperature (19.5-24.5° C.) and relative humidity (45-65%) controlled room with a 12-hour light/dark cycle, with ad libitum access to filtered tap-water and irradiated pelleted laboratory chow (SAFE, France) throughout the study. Upon receipt at animal facilities, they were housed 4 per cage covered with filtered caps and at least a 5-day acclimation period was observed.
The mice were divided into three groups of 8 mice each (groups 1-3). Each group was treated with vehicle (PBS) subcutaneously (s.c.), 3 mg/kg Rosiglitazone orally (p.o.), or 20 mg/kg NT-4/5 subcutaneously (s.c.). From day 1 to day 5 (T1-T5) and then from day 8 to day 12 (T8-T12), the mice in groups 2 and 3 were dosed once daily for 5 consecutive days, with a volume of 10 ml/kg.
Collection of samples for analysis: One day before beginning the treatment (T0), non fasted db/db mice were weighed and blood samples were collected through the retro-orbital plexus (about 300 μL/mouse) under isoflurane anesthesia. Similarly, at day 5 (T5), day 12 (T12), day 19 (T19) and day 26 (T26), two hours after the last administration, blood samples were collected through the retro-orbital plexus under isoflurane anesthesia in non fasted mice.
Analysis of blood samples in db/db mice: Pre- and post dose serum levels of glucose, HbA1c, cholesterol and triglycerides, insulin, and non esterified fatty acids (NEFA), as well as aspirate amino-transferase (AST) and alanine amino-transferase activities (ALT) activities, were determined at different time points, as described further herein. At each time point and for each parameter, a mean % of the effect was calculated according to the following formula: ((T final−T initial)/T initial)*100. Statistical analysis was consistent in a one-way analysis of variance followed by multiple comparisons versus the vehicle group (Dunnett's test) on final values. In case the equal variance test fails, a Kruskall-Wallis one-way analysis of variance on ranks was conducted. A difference was considered significant for p<0.05.
Aspartate amino-transferase (AST) and alanine amino-transferase (ALT) activities were determined with an AST kit (ref. 442665, Beckman Coulter, France), an ALT kit (ref. 442620, Beckman Coulter, France), using a Synchron CX4 analyzer.

db/db mice [2] = experiment: HbA1c in db/db mice (Example 1); type: in vivo
Procedure: (§1) A difference was considered significant for p<0.05.
HbA1c levels were determined using an HbA1c kit (ref. 650262, Beckman Coulter, France) and a Synchron CX4 synchronizer. HbA1c is an indicator for blood glucose control over the last 2-3 months. The normal level of HbA1c in C57BL/6J mouse (determined by measuring 8 normal healthy C57BL/6J mice) was about 3.5%.

db/db mice [3] = experiment: Food intake of db/db mice (Example 1); type: in vivo; settings: NT-4/5 20 mg/kg s.c., Rosiglitazone 3 mg/kg p.o.
Procedure: Throughout the experiment period (T1-T26), daily individual body weights as well as food intake per cage were measured.

db/db mice [4] = experiment: Blood glucose levels in db/db mice (Example 1); type: in vivo; settings: NT-4/5 20 mg/kg s.c., Rosiglitazone 3 mg/kg p.o.
Procedure: Administration of NT-4/5 and reference substances: Rosiglitazone (3 mg/kg, Sequoia Research Products Ltd., UK), a thiazolidinedione compound for the therapy of type 2 diabetes, was used in the present experiment as a reference. Phosphate buffer saline was used as vehicle in this experiment. NT-4/5 was obtained from Genentech.
as §1

db/db mice [5] = experiment: Blood insulin level by ELISA in db/db mice (Example 1); type: in vivo; settings: NT-4/5 20 mg/kg s.c., Rosiglitazone 3 mg/kg p.o.
Procedure: as §1
The blood insulin level was determined by ELISA using an Insulin ELIT Plus kit (ref. INSRAT01-8N, Eurobio, France).

CN(CCOc1ccc(CC2SC(=O)NC2=O)cc1)c1ccccn1 (centres unmarked) [Rosiglitazone, reference compound]
ALT/AST ratio T5 (db/db mice [1]; day 5): 1.03 | AST T5 (db/db mice [1]; day 5): 174.0 IU/L | ALT % effect T5-T0 (db/db mice [1]; day 5 vs day 0): 12.7% | ALT/AST ratio % effect T5-T0 (db/db mice [1]; day 5 vs day 0): 16.4% | AST % effect T5-T0 (db/db mice [1]; day 5 vs day 0): 8.2% | ALT T12 (db/db mice [1]; day 12): 222.0 IU/L | ALT/AST ratio T12 (db/db mice [1]; day 12): 1.13 | AST T12 (db/db mice [1]; day 12): 200.5 IU/L | ALT % effect T12-T0 (db/db mice [1]; day 12 vs day 0): 43.6% | ALT/AST ratio % effect T12-T0 (db/db mice [1]; day 12 vs day 0): 30.4% | AST % effect T12-T0 (db/db mice [1]; day 12 vs day 0): 19.9% | ALT T19 (db/db mice [1]; day 19): 179.0 IU/L | ALT/AST ratio T19 (db/db mice [1]; day 19): 1.31 | AST T19 (db/db mice [1]; day 19): 148.5 IU/L | ALT % effect T19-T0 (db/db mice [1]; day 19 vs day 0): 16.6% | ALT/AST ratio % effect T19-T0 (db/db mice [1]; day 19 vs day 0): 52.2% | AST % effect T19-T0 (db/db mice [1]; day 19 vs day 0): −6.9% | ALT T26 (db/db mice [1]; day 26): 144.3 IU/L | ALT/AST ratio T26 (db/db mice [1]; day 26): 1.05 | AST T26 (db/db mice [1]; day 26): 143.0 IU/L | ALT % effect T26-T0 (db/db mice [1]; day 26 vs day 0): −10.1% | ALT/AST ratio % effect T26-T0 (db/db mice [1]; day 26 vs day 0): 17.1% | AST % effect T26-T0 (db/db mice [1]; day 26 vs day 0): −13.8% | HbA1c level decrease at T12 (db/db mice [2]; T12 vs T0): 1% | HbA1c level decrease at T26 (db/db mice [2]; T26 as compared to T0): 9.6% | HbA1c T0 (db/db mice [2]; day 0, before treatment, NT-4/5 20 mg/kg s.c., Rosiglitazone 3 mg/kg p.o.): 5.74% | HbA1c T12 (db/db mice [2]; day 12, NT-4/5 20 mg/kg s.c., Rosiglitazone 3 mg/kg p.o.): 5.69% | HbA1c % effect T12-T0 (db/db mice [2]; day 12 vs day 0, NT-4/5 20 mg/kg s.c., Rosiglitazone 3 mg/kg p.o.): −1.0% | HbA1c T26 (db/db mice [2]; day 26, NT-4/5 20 mg/kg s.c., Rosiglitazone 3 mg/kg p.o.): 5.18% | HbA1c % effect T26-T0 (db/db mice [2]; day 26 vs day 0, NT-4/5 20 mg/kg s.c., Rosiglitazone 3 mg/kg p.o.): −9.6% | food intake, mean (db/db mice [3]; Day 1): 100.8 g/kg/day | food intake, mean (db/db mice [3]; Day 2): 124.9 g/kg/day | food intake, mean (db/db mice [3]; Day 3): 137.8 g/kg/day | food intake, mean (db/db mice [3]; Day 5): 143.1 g/kg/day | food intake, mean (db/db mice [3]; Day 6): 63.4 g/kg/day | food intake, mean (db/db mice [3]; Day 7): 96.6 g/kg/day | food intake, mean (db/db mice [3]; Day 8): 129.1 g/kg/day | food intake, mean (db/db mice [3]; Day 9): 139.3 g/kg/day | food intake, mean (db/db mice [3]; Day 10): 140.2 g/kg/day | food intake, mean (db/db mice [3]; Day 11): 128.1 g/kg/day | food intake, mean (db/db mice [3]; Day 12): 114.4 g/kg/day | food intake, mean (db/db mice [3]; Day 13): 98.3 g/kg/day | food intake, mean (db/db mice [3]; Day 14): 129.1 g/kg/day | food intake, mean (db/db mice [3]; Day 15): 100.3 g/kg/day | food intake, mean (db/db mice [3]; Day 18): 108.2 g/kg/day | food intake, mean (db/db mice [3]; Day 19): 102.0 g/kg/day | food intake, mean (db/db mice [3]; Day 20): 90.5 g/kg/day | food intake, mean (db/db mice [3]; Day 21): 129.9 g/kg/day | food intake, mean (db/db mice [3]; Day 22): 122.3 g/kg/day | food intake, mean (db/db mice [3]; Day 25): 125.4 g/kg/day | food intake, mean (db/db mice [3]; Day 26): 109.2 g/kg/day | blood glucose levels T0 (db/db mice [4]; day 0, before treatment): 37.56 mM | blood glucose % effect T5-T0 (db/db mice [4]; day 5 vs day 0): −40.5% | blood glucose levels T12 (db/db mice [4]; day 12): 22.24 mM | blood glucose % effect T12-T0 (db/db mice [4]; day 12 vs day 0): −40.9% | blood glucose levels T19 (db/db mice [4]; day 19 (dosing stopped day 12)): 33.74 mM | blood glucose % effect T19-T0 (db/db mice [4]; day 19 vs day 0): −9.0% | blood glucose levels T26 (db/db mice [4]; day 26 (dosing stopped day 12)): 43.60 mM | blood glucose % effect T26-T0 (db/db mice [4]; day 26 vs day 0): 17.5% | insulin levels T0 (db/db mice [5]; day 0, before treatment): 6.93 nM | insulin levels T5 (db/db mice [5]; day 5): 3.94 nM | insulin % effect T5-T0 (db/db mice [5]; day 5 vs day 0): −37.0% | insulin levels T12 (db/db mice [5]; day 12): 2.85 nM | insulin % effect T12-T0 (db/db mice [5]; day 12 vs day 0): −51.8% | insulin levels T19 (db/db mice [5]; day 19): 7.30 nM | insulin % effect T19-T0 (db/db mice [5]; day 19 vs day 0): 14.4% | insulin levels T26 (db/db mice [5]; day 26): 6.33 nM | insulin % effect T26-T0 (db/db mice [5]; day 26 vs day 0): −5.7%
